From US6632829B2, “Sulfonamides and derivatives thereof that modulate the activity of endothelin” (Texas Biotechnology Corp., priority 1996, dated 2003) come the findings set out here.

One assay concerns the target T1, human ETA receptors (Homo sapiens, UniProt P25101).
T1 construct: endogenous in cells; host or cells: TE 671 cells (ATCC HTB 139), membrane preparation
T1 sequence (P25101 21-427): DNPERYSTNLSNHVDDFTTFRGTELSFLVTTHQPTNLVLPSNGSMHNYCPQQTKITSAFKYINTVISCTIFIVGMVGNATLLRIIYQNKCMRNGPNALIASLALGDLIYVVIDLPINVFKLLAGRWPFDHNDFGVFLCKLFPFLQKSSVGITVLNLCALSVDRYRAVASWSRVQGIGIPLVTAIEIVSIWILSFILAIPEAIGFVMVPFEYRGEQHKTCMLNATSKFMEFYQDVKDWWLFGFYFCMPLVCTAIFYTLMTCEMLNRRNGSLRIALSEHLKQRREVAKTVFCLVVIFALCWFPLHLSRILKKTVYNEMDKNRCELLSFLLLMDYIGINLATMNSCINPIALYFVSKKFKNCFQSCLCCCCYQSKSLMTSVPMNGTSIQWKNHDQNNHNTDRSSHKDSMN
Description: Endothelin binding inhibition, Binding Test #1: competition with 125I-ET-1 for ETA receptors on TE 671 cell membranes.

In the next assay the target is T2, human ETB receptor (Homo sapiens, UniProt P24530).
T2 construct: expressed in transfected cells; host or cells: COS7 cells
T2 sequence (P24530 27-442): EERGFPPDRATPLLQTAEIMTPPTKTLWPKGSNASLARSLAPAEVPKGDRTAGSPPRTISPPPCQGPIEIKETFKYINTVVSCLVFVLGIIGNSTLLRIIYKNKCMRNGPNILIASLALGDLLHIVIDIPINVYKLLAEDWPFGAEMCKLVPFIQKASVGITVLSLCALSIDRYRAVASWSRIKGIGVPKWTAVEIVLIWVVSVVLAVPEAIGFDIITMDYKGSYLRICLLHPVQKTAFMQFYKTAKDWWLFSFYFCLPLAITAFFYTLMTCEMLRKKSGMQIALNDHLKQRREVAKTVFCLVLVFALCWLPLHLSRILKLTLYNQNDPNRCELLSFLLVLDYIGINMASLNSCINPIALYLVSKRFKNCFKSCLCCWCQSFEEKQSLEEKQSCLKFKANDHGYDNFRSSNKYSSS
In words: Endothelin binding inhibition, Binding Test #2: competition with 125I-ET-1 for ETB receptors on transfected COS7 cell membranes. Summed up: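 Membranes from COS7 cells transfected with human ETB receptor, prepared in HEPES pH 7.4 with aprotinin, MnCl2/DNase treatment at 37° C for 30 min. Test compounds compete with 125I-labeled ET-1 for receptor binding; membrane used at 1 μg/50 μL binding buffer.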

Where [1] appears, read: incubation at 24° C. (values marked †).
The mark [2] stands for this setting: incubation at 4° C. (values without †).

Bounds are passed on as bounds.

Turning to `Cc1noc(NS(=O)(=O)c2ccsc2C(=O)NS(=O)(=O)c2cccc3c(N(C)C)cccc23)c1Br` [N-(4-bromo-3-methyl-5-isoxazolyl)-2-[(5-dimethylamino-1-naphthyl)sulfonylaminocarbonyl]thiophene-3-sulfonamide], the IC50 is 0.97 µM on human ETA receptors (setting [1]) and 3.9 µM on human ETB receptor (setting [1]).

In the case of “N-(4-chloro-3-methyl-5-isoxazolyl)-2-phenylbenzo[b]thiophene sulfonamide”, the IC50 came to 0.932 µM at human ETA receptors (setting [1]) and 46.8 µM on human ETB receptor (setting [1]).

For the compound `Cc1noc(NS(=O)(=O)c2ccsc2C(=O)Oc2ccccc2)c1Cl` [N-(4-chloro-3-methyl-5-isoxazolyl)-2-(phenoxycarbonyl)thiophene-3-sulfonamide], on human ETA receptors (setting [1]), the IC50 amounted to 4.41 µM. For the same compound, on human ETB receptor (read-out: ETB % inhibition @ 100 μM, @ 100 μM, incubation at 24° C.), the inhibition at 100 µM amounted to 31%.

As for `COc1cccc(NCc2sccc2S(=O)(=O)Nc2onc(C)c2C)c1` [N-(3,4-dimethyl-5-isoxazolyl))-2-[(3-methoxyanilino)methyl]thiophene-3-sulfonamide], the concentration for half-maximal inhibition (IC50) on human ETA receptors (setting [2]) amounted to 0.214 µM; at human ETA receptors (setting [1]) it was 0.933 µM; at human ETB receptor (setting [2]) it was 5.34 µM; at human ETB receptor (setting [1]) it was 7.7 µM.

For the compound `Cc1cc(C)c(CCc2sccc2S(=O)(=O)Nc2onc(C)c2Br)c(C)c1` [N-(4-bromo-3-methyl-5-isoxazolyl)-2-(2,4,6-trimethylphenethyl)thiophene-3-sulfonamide], the results for the IC50 at human ETA receptors (setting [1]) and on human ETB receptor (setting [1]) were 0.0417 µM and 1.23 µM, respectively.

Regarding `Cc1ccccc1OC(=O)c1sccc1S(=O)(=O)Nc1onc(C)c1Br` [N-(4-bromo-3-methyl-5-isoxazolyl)-2-[(2-methylphenoxy)carbonyl]thiophene-3-sulfonamide], the results for the IC50 at human ETA receptors (setting [1]) and on human ETB receptor (setting [1]) were 0.684 µM and 105 µM, respectively.

As for `COc1ccc(CC(=O)c2sccc2S(=O)(=O)Nc2onc(C)c2Cl)cc1` [N-(4-chloro-3-methyl-5-isoxazolyl)-2-[(4-methoxyphenyl)acetyl]thiophene-3-sulfonamide], the IC50 at human ETA receptors (setting [1]) turned out to be 0.043 µM; on human ETB receptor (setting [1]), 10.1 µM.

For the compound `Cc1noc(NS(=O)(=O)c2ccsc2C(=O)Nc2cccc(C(=O)O)c2)c1Br` [N-(4-bromo-3-methyl-5-isoxazolyl)-2-[(3-carboxyphenyl)aminocarbonyl]thiophene-3-sulfonamide], the values for the IC50 at human ETA receptors (setting [1]) and on human ETB receptor (setting [1]) were 0.062 µM and over 100 µM, respectively.

“N-(3,4-dimethyl-5-isoxazolyl)-2-(4-tolylacetylphenyl)thiophene-3-sulfonamide”: the IC50 was 0.0027 µM at human ETA receptors (setting [1]) and 29.2 µM at human ETB receptor (setting [1]).

Consider `Cc1ccc(-c2ccc(S(=O)(=O)Nc3noc(C)c3Br)s2)cc1` [N-(4-bromo-5-methyl-3-isoxazolyl)-5-(4-methylphenyl)thiophene-2-sulfonamide], for which the IC50 at human ETA receptors (setting [2]) is 7.1 µM; at human ETA receptors (setting [1]), 15.8 µM; on human ETB receptor (setting [2]), 0.359 µM; at human ETB receptor (setting [1]), 0.25 µM.

Take `Cc1cc(C)cc(CC(=O)c2sccc2S(=O)(=O)Nc2onc(C)c2Cl)c1` [N-(4-chloro-3-methyl-5-isoxazolyl)-2-(3,5-dimethylphenylacetyl)thiophene-3-sulfonamide]: the IC50 at human ETA receptors (setting [1]) came out at 0.045 µM; on human ETB receptor (setting [1]) it was 17.7 µM.

For the compound `Cc1noc(NS(=O)(=O)c2ccsc2C(=O)N2CCN(Cc3ccc4c(c3)OCO4)CC2)c1Cl` [N-(4-chloro-3-methyl-5-isoxazolyl)-2-{[4-(3,4-methylenedioxybenzyl)piperazin-1-yl]carbonyl}thiophene-3-sulfonamide], the IC50 was 20 µM at human ETA receptors (setting [1]) and over 100 µM at human ETB receptor (setting [1]).

Take `Cc1cc(C)c(NC(=O)c2sccc2S(=O)(=O)Nc2onc(C)c2Cl)c(-c2ccccc2)c1` [N-(4-chloro-3-methyl-5-isoxazolyl)-2-(2-phenyl-4,6-dimethylphenylaminocarbonyl)thiophene-3-sulfonamide]: the IC50 at human ETA receptors (setting [1]) amounted to 0.0159 µM; on human ETB receptor (setting [1]), 29.5 µM.

For `CC(=O)OCCc1cc2c(cc1NC(=O)c1sccc1S(=O)(=O)Nc1onc(C)c1Cl)OCO2` [N-(4-chloro-3-methyl-5-isoxazolyl)-2-[3,4-(methylenedioxy)-6-(2-acetoxyethyl)phenylaminocarbonyl]thiophene-3-sulfonamide], the IC50 on human ETA receptors (setting [1]) stood at 0.0045 µM; at human ETB receptor (setting [1]), 25.7 µM.
